Measurements: article PMC5267425, “Identification of small molecule modulators of HIV-1 Tat and Rev protein accumulation” (Retrovirology, 2017)

How the values were obtained:
[1] = Trypan blue exclusion, PBMCs; format: cell-based, human; conditions: human, peripheral blood mononuclear cells (PBMCs)
Procedure: To examine the effect of compounds on viral replication, studies were carried out in peripheral blood mononuclear cells (PBMCs). PBMCs were isolated from healthy (HIV-uninfected) volunteer blood donors as described by Dobson-Belaire et al.. Informed consent was obtained from participants in accordance with the guidelines for conduct of clinical research at the University of Toronto and St. Michael’s Hospital, Toronto, Ontario, Canada. Stored PBMCs were thawed, washed with RPMI 1640 complete medium and cultured in RPMI 1640 complete medium containing 2 μg/mL of PHA-L (Sigma-Aldrich) and 20 U/mL of IL-2 (BD Pharmingen) for 72 h. Subsequently, cells were counted and a portion of the cells was separated to another tube for uninfected control treatments. The remaining PBMCs were resuspended in media containing HIV-1 BaL at a multiplicity of infection (MOI) of approximately 0.01 and infected by spinoculation, following which cells were washed twice with room temperature RPMI 1640 complete medium and resuspended to a concentration of 5 × 10^5 cells/mL in complete RPMI 1640 containing 20 U/mL of IL-2. Compounds were added to infected PBMCs or uninfected control PBMCs. Azidothymidine (AZT, Sigma-Aldrich) was used as control treatment at a final concentration of 3.74 μM. On day 4 post infection, culture medium was replenished with the compounds and IL-2 in fresh complete RPMI 1640. On days 2, 4, 6 and 8 post infection, culture supernatant was harvested, virus lysed by adjusting to 1% TritonX-100 and stored at −20 °C for p24 antigen ELISA. A fraction of the culture was harvested to assess percent cell viability by trypan blue exclusion using Glasstic slides (Kova). Relative percent cell viability in compound treated samples versus DMSO-control treated samples was calculated as follows: (total viable cells/total cells)compound/(total viable cells/total cells)DMSO.

[2] = test system: HIV-1 gene expression in HeLa rtTA HIV∆Mls cells; assay: HIV-1 gene expression / virion production by p24 antigen ELISA, Dox-inducible provirus; format: cell-based; conditions: for reduction of HIV-1 viral production relative to DMSO (+Dox): 791 30 µM, 833 2 µM, 892 15 µM, 24 h (Fig. 1); for IC50: Human immunodeficiency virus 1, HeLa
Source text: Effects of compound treatment on HIV-1 gene expression were initially assessed in the context of HeLa rtTA HIV∆Mls cells stably transduced with an inducible Tet-On HIV-1 system (as previously described). The provirus was modified by either deletion in the reverse transcriptase and integrase region of the pol gene by an MlsI restriction digest (HeLa rtTA HIV∆Mls cell line) or GFP fusion to Gag, deleting the PR and RT-coding regions (HeLa rtTA HIVGagGFP cell line). […] All cell lines were maintained in Iscove’s modified Delbecco’s medium (IMDM; Wisent) supplemented with 10% (vol/vol) fetal bovine serum (FBS, Wisent), 1% penicillin/streptomycin (P/S, Wisent) and 0.2% Amphotericin B (Wisent). Indicator cell line CEM-GXR was obtained from Dr. Mark Brockman (Simon Fraser University). The RTI-resistant virus (E00443) was obtained from Dr. Zabrina Brumme (Simon Fraser University). The HIV-1 clade A (97USSN54 (N54)), HIV-1 clade B (IIIB), integrase inhibitor resistant virus (11845), protease inhibitor resistant virus (2948) were obtained through the NIH AIDS Research and Reference reagent program, Division of AIDS, NIAID, NIH).
The compounds used in the treatment assay were obtained from ChemBridge. All compounds were solubilized to 10 mM or 1 mM stock concentrations in dimethyl sulfoxide (DMSO) and stored at −20 °C for subsequent experiments. Cells were incubated for 3–5 h in the presence of the compounds prior to induction with doxycycline (Dox) at a final concentration of 2 μg/mL. 24 h post compound treatment, culture medium was harvested, adjusted to 1% Triton X-100, and incubated at 37 °C for 1 h for p24 antigen ELISA. Cells were harvested in 2 mM EDTA, 1xPBS. RNA was isolated using Aurum Total RNA extraction kits (Bio-Rad), while total protein was extracted with RIPA buffer (1% NP-40, 0.1% SDS, 0.5% sodium deoxycholate, 150 mM NaCl, 50 mM Tris–HCl).
(§1) ELISA for p24 Gag antigen was performed on cell supernatants using kits purchased from Frederick National Laboratory for Cancer Research (Leidos) or XpressBio extended range kit and performed according to manufacturer’s instructions. Protein concentration in cell lysates was quantified by Bradford assay and equal amounts of protein run on 7, 10, 12, or 14% SDS-PAGE, depending on the protein of interest. Following transfer to PVDF (BioRad or Perkin-Elmer), blots were blocked in either 5% Milk-PBS-T (5% Milk, 0.05% Tween-20, 1× PBS) or 3% BSA-PBS-T (3% BSA, 0.05% Tween-20, 1× PBS) prior to incubating with primary antibody (all diluted in 3% BSA-PBS-T). Primary antibodies used were: purified mouse anti-p24 supernatant from anti-HIV-1 Gag hybridoma 183, mouse anti-gp120 hybridoma 902 (NIH AIDS Reagent Program), mouse monoclonal antibody to HIV-1 Rev (Abcam), rabbit polyclonal antibody to HIV-1 Tat (Abcam), mouse monoclonal antibody to p53 (Santa Cruz), rabbit purified IgG for Nap1 (provided by L. Frappier), rabbit polyclonal antibody to GAPDH (Sigma-Aldrich), or mouse monoclonal antibody to α-Tubulin (Sigma-Aldrich). Following incubation with appropriate secondary antibody, blots were visualized by ECL, ECL Plus (Perkin-Elmer), or Clarity Western ECL substrate (BioRad). Quantification of the relative intensity of the detected bands was done using ImageLab software and normalized to corresponding bands of the loading control (GAPDH or α-Tubulin).

[3] = test system: Nap1; assay: Western blot of Nap1; format: cell-based; conditions: 791 30 µM, 833 2 µM, 892 15 µM, 24 h
Procedure: as §1

[4] = test system: HeLa rtTA HIV∆Mls cells; assay: XTT cell metabolism/viability assay, HeLa; format: cell-based; conditions: for cell viability at dose required to reduce Gag expression by >80%: XTT and Trypan blue exclusion, 791 20 µM, 833 10 µM
Procedure: Effects of compound treatment on cellular metabolism was assessed by an XTT-based in vitro toxicology assay kit (Sigma-Aldrich) or Trypan blue exclusion (Life Technologies) as proxy for degree of cytotoxicity and expressed relative to DMSO control treatment. For measurement of cell viability using XTT, culture media was removed after 24, 72, and 96 h of compound treatment, replaced with 20% XTT solution and incubated at 37 °C in a 5% CO2 humidified incubator for 2–6 h, and relative cell viability was measured in compound treated cells relative to DMSO-treated cells. Cell viability measurements in CEM-GXR cells are described above.

| SMILES | CC50 [1] [nM] | viability at 6 days post infection ([1]; PBMCs, 6 days post infection, concentrations up to 7.5 µM, read-out: cell viability) [%] | reduction of HIV-1 viral production relative to DMSO (+Dox) [2] | IC50 [2] [nM] | reduction of Nap1 expression [3] | toxicity on extended culture (cell proliferation by XTT) ([4]; 1, 3 and 4 days post-treatment, in comparison to 833 and 892 (Figure S5)) | cell viability at dose required to reduce Gag expression by >80% [4] | reduction in Gag expression ([2]; 1.5 µM) [%] | mitochondrial function by XTT ([4]; up to 10 µM) |
| --- | --- | --- | --- | --- | --- | --- | --- | --- | --- |
| Cc1cc(NCc2cccnc2)n2ncc(-c3ccc(Cl)cc3)c2n1 [Compound 791, 3-(4-chlorophenyl)-5-methyl-N-(3-pyridinylmethyl)pyrazolo[1,5-a]pyrimidin-7-amine] | > 10000 | > 80 | 80–90% | 8200 | approximately 50% | reduced toxicity | not affected | – | – |
| O=C(NC(=S)NNC(=O)c1ccccc1O)c1ccc(-c2ccccc2)cc1 [Compound 833, N-([2-(2-hydroxybenzoyl)hydrazino]carbonothioyl}-4-biphenylcarboxamide] | 3000 | – | 80–90% | 600 | more variable | – | not affected | 90 | some reduction in mitochondrial function |
| COc1ccc(C=NNC(=O)c2ccccc2O)cc1O [Compound 892, 2-hydroxy-N′-(3-hydroxy-4-methoxybenzylidene)benzohydrazide] | 4500 | – | 80–90% | 1800 | no effect | – | – | – | – |
